# Assay results taken from patent US20090191183A1, “SUBSTITUTED INDOLES” (AUSPEX PHARMACEUTICALS, INC., priority 2007, published 2009).
# Experiments:
# [1] = In vitro human liver microsomal (HLM) stability assay; type: in vitro ADME; settings: vs non-isotopically enriched drug; 1 mg per mL liver microsome protein, 1 μM, 37° C.; + marks the range of the column head
# Description: Liver microsomal stability assays are conducted at 1 mg per mL liver microsome protein with an NADPH-generating system in 2% NaHCO3 (2.2 mM NADPH, 25.6 mM glucose 6-phosphate, 6 units per mL glucose 6-phosphate dehydrogenase and 3.3 mM MgCl2). Test compounds are prepared as solutions in 20% acetonitrile-water and added to the assay mixture (final assay concentration 1 μM) and incubated at 37° C. Final concentration of acetonitrile in the assay should be <1%. Aliquots (50 μL) are taken out at times 0, 7.5, 15, 22.5, and 30 min, and diluted with ice cold acetonitrile (200 μL) to stop the reactions. Samples are centrifuged at 12,000 RPM for 10 min to precipitate proteins. Supernatants are transferred to micro centrifuge tubes and stored for LC/MS/MS analysis of the degradation half-life of the test compounds.
# [2] = target: T1, cytochrome P450 CYP3A4 (Homo sapiens, UniProt P08684); settings: human liver microsomes; at concentrations near clinically achieved total plasma concentrations; cited from earlier work
# T1 construct: in vitro studies using human liver microsomes; from tissue; host or cells: human liver microsomes
# [3] = target: T2, cytochrome P450 CYP2C9 (Homo sapiens, UniProt P11712); settings: human liver microsomes; at concentrations near clinically achieved total plasma concentrations; cited from earlier work
# T2 construct: in vitro studies using human liver microsomes; from tissue; host or cells: human liver microsomes
# [4] = treatment of mild to moderate asthma; cited from earlier work
# T1 sequence (P08684 whole entry): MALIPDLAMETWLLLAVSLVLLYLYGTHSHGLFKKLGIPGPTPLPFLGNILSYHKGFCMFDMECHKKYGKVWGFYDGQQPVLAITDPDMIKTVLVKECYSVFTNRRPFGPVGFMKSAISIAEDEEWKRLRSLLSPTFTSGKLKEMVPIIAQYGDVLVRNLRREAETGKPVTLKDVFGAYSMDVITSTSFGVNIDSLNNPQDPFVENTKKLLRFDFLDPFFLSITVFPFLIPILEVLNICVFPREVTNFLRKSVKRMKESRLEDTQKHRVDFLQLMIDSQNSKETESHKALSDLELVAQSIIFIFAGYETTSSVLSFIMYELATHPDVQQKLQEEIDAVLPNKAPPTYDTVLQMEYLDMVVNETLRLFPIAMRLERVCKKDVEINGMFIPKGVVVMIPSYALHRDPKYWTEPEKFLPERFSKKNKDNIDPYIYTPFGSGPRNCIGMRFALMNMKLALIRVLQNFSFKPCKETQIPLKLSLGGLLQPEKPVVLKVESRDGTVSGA
# T2 sequence (P11712 whole entry): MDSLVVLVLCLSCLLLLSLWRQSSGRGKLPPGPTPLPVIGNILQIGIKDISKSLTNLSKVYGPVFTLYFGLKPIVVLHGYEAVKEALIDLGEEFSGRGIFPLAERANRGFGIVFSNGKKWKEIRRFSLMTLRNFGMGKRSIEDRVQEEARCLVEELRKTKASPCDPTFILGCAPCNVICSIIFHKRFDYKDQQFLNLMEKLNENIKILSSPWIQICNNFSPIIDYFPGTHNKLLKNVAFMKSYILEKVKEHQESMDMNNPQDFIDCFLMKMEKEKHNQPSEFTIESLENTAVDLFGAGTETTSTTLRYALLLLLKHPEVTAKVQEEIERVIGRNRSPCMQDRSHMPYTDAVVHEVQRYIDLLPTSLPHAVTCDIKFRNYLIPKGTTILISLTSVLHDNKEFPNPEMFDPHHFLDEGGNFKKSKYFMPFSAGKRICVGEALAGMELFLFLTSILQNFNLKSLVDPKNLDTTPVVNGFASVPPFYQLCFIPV
smiles,measurement,setting,value
"COc1cc(C(=O)NS(=O)(=O)c2ccccc2C)ccc1Cc1cn(C)c2ccc(NC(=O)OC3CCCC3)cc12 [Example 1, reference compound]","% increase of HLM degradation half-life, 5%-15%",[1],+ (5%-15%)
[2H]C([2H])([2H])Oc1cc(C(=O)NS(=O)(=O)c2ccccc2C)ccc1Cc1cn(C)c2ccc(NC(=O)OC3CCCC3)cc12 [Example 2],"% increase of HLM degradation half-life, 5%-15%",[1],+ (5%-15%)
[2H]C([2H])([2H])c1ccccc1S(=O)(=O)NC(=O)c1ccc(Cc2cn(C)c3ccc(NC(=O)OC4CCCC4)cc23)c(OC)c1 [Example 3],"% increase of HLM degradation half-life, 15%-25%",[1],+ (15%-25%)
[2H]C([2H])([2H])n1cc(Cc2ccc(C(=O)NS(=O)(=O)c3ccccc3C)cc2OC)c2cc(NC(=O)OC3CCCC3)ccc21 [Example 4],"% increase of HLM degradation half-life, 15%-25%",[1],+ (15%-25%)
[2H]C([2H])([2H])Oc1cc(C(=O)NS(=O)(=O)c2ccccc2C([2H])([2H])[2H])ccc1Cc1cn(C([2H])([2H])[2H])c2ccc(NC(=O)OC3([2H])C([2H])([2H])C([2H])([2H])C([2H])([2H])C3([2H])[2H])cc12 [Example 6],"% increase of HLM degradation half-life, 15%-25%",[1],+ (15%-25%)
[2H]C([2H])([2H])Oc1cc(C(=O)NS(=O)(=O)c2ccccc2C([2H])([2H])[2H])ccc1Cc1cn(C([2H])([2H])[2H])c2ccc(NC(=O)OC3CCCC3)cc12 [Example 7],"% increase of HLM degradation half-life, column >25%",[1],+ (>25%)
"COc1cc(C(=O)NS(=O)(=O)c2ccccc2C)ccc1Cc1cn(C)c2ccc(NC(=O)OC3CCCC3)cc12 [zafirlukast, 4-(5-cyclopentyloxy-carbonylamino-1-methyl-indol-3-ylmethyl)-3-methoxy-N—O-tolylsulfonylbenzamide]",inhibition of cytochrome P450 CYP3A4 isoenzyme,[2],inhibits
same,inhibition of cytochrome P450 CYP2C9 isoenzyme,[3],inhibits
same,hepatotoxicity,[4],occasional idiosyncratic hepatotoxicity
